Experimental data as given in patent US12180226B2, “Spirotricycle RIPK1 inhibitors and methods of uses thereof” (Merck Sharp & Dohme LLC, priority 2021, dated 2024).
pEC50: −log10 of the molar value. Where a name gives a salt, the structure may show the parent alone.

The compounds below were run against RIPK1 (recombinant GST-RIPK1 kinase domain, residues 1-327) (Homo sapiens (Human), UniProt Q13546) (assay: RIPK1-ADP-Glo Enzymatic Assay). Conditions: ADP-Glo; 25 nM GST-RIPK1, 300 μM ATP; assay lower limit ~25 nM; read-out: RIPK1 V0 Ec50.
RIPK1 (recombinant GST-RIPK1 kinase domain, residues 1-327), sequence (Q13546 1-327): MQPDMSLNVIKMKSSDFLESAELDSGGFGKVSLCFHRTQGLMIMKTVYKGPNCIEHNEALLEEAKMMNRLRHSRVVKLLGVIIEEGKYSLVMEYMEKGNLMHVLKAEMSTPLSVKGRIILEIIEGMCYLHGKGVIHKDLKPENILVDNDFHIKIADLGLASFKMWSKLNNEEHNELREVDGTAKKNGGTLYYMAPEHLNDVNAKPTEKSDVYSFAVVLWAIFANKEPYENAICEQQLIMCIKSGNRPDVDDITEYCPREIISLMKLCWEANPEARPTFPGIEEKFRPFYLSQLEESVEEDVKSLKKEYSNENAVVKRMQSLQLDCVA
Assay type: biochemical
Procedure: RIPK1-ADP-Glo Enzymatic Assay
The enzymatic activity of RIPK1 is measured using an assay derived from ADP-Glo kit (TMPromega), which provides a luminescent-based ADP detection system. Specifically, the ADP generated by RIPK1 kinase is proportionally detected as luminescent signals in a homogenous fashion. In this context, the assessment of the inhibitory effect of small molecules (EC50) is measured by the effectiveness of the compounds to inhibit the ATP to ADP conversion by RIPK1.
In this assay, the potency (EC50) of each compound was determined from a ten-point (1:3 serial dilution; top compound concentration of 100000 nM) titration curve using the following outlined procedure. The assay bottom or lower limit of confidence is ˜25 nM. To each well of a white ProxiPlus 384 well-plate, 30 nL of compound (1% DMSO in final assay volume of 3 μL) was dispensed, followed by the addition of 2 μL of 1×assay buffer (25 mM Hepes 7.3, 20 mM MgCl2, 50 mM NaCl, 1 mM DTT, 0.005% Tween20, and 0.02% BSA) containing 37.5 nM of GST-RIPK1 (recombinant GST-RIPK1 kinase domain (residues 1-327) enzyme produced from baculovirus-transfected Sf21 cells: MW=62 kDa). Plates were placed in an ambient temperature humidified chamber for a 30-minute pre-incubation with compound. Subsequently, each reaction was initiated by the addition of 1 μL 1×assay buffer containing 900 μM ATP and […] dephosphorylated-MBP substrate. The final reaction in each well of 3 μL consists of 25 nM of GST-RIPK1, 300 μM ATP, and 3 μM dephosphorylated-MBP. Kinase reactions were allowed to proceed for 150 minutes prior to adding ADP-Glo reagents per Promega's outlined kit protocol. Dose-response curves were generated by plotting percent effect (% product conversion; Y-axis) vs. Log10 compound concentrations (X-axis). EC50 values were calculated using a non-linear regression, four-parameters sigmoidal dose-response model.

With `O=C(c1ccn(C(F)F)n1)N1CCC2(CC1)O[C@@H]1CC[C@@H](c3cc(F)cc(F)c3)N1C2=O` [Example 5.41] as the compound, how does the pEC50 read?
The pEC50 was 6.89.

How did the pEC50 turn out when `O=C(c1ccoc1C(F)(F)F)N1CCC2(CC1)O[C@@H]1CC[C@@H](c3cc(F)cc(F)c3)N1C2=O` [Example 6.67, (5′S,7a′R)-5′-(3,5-difluorophenyl)-1-[2-(trifluoromethyl)-furan-3-carbonyl]-tetrahydro-3′H-spiro [piperidine-4,2′-pyrrolo[2,1-b][1,3]-oxazol]-3′-one] was run?
Its pEC50 is 7.30.

`N#Cc1ncc(N2CCC3(CC2)O[C@@H]2CC[C@@H](c4cc(F)cc(F)c4)N2C3=O)cn1` [Example 4.45, 5-[(5′S,7a′R)-5′-(3,5-difluorophenyl)-3′-oxotetrahydro-1H,3′H-spiro[piperidine-4,2′-pyrrolo[2,1-b] [1,3]oxazol]-1-yl]pyrimidine-2-carbonitrile] was tested. Which pEC50 did it give?
Its pEC50 is 6.60.

`NC(=O)c1ccc(N2CCC3(CC2)O[C@@H]2CC[C@@H](c4ccccc4F)N2C3=O)n2ncnc12` [Example 4.151, 5-[(5′S,7a′R)-5′-(2-fluorophenyl)-3′-oxotetrahydro-1H,3′H-spiro[piperidine-4,2′-pyrrolo[2,1-b] [1,3]oxazol]-1-yl][1,2,4]triazolo[1,5-a] pyridine-8-carboxamide] was tested. Which pEC50 did it give?
Its pEC50 is > 7.60.

`O=C1N2[C@@H](CC[C@H]2c2ccccc2)OC12CCN(c1ccc(Br)n3ncnc13)CC2` [Example 4.216, (5′S,7a′R)-1-(5-bromo [1,2,4]triazolo[1,5-a]pyridin-8-yl)-5′-phenyltetrahydro-3′H-spiro[piperidine-4,2′-pyrrolo[2,1-b] [1,3]oxazol]-3′-one] was tested. Which pEC50 did it give?
The pEC50 was > 7.60.

`Cc1nc(N2CCC3(CC2)O[C@@H]2CC[C@@H](c4cc(F)cc(F)c4)N2C3=O)ccc1C#N` [Example 4.42, 6-[(5′S,7a′R)-5′-(3,5-difluorophenyl)-3′-oxotetrahydro-1H,3′H-spiro[piperidine-4,2′-pyrrolo[2,1-b] [1,3]oxazol]-1-yl]-2-methylpyridine-3-carbonitrile] was tested. Which pEC50 did it give?
The pEC50 was > 7.60.

With `O=C(c1ccn(C2CC2)n1)N1CCC2(CC1)O[C@@H]1CC[C@@H](c3cc(F)cc(F)c3)N1C2=O` [Example 5.52, (5′S,7a′R)-1-(1-cycloprop-yl-1H-pyrazole-3-carbon-yl)-5′-(3,5-difluorophen-yl)tetrahydro-3′H-spiro [piperidine-4,2′-pyrrolo-[2,1-b]oxazol]-3′-one] as the compound, how does the pEC50 read?
The pEC50 was 7.05.

With `CC(C)N1Cc2nc(N3CCC4(CC3)O[C@@H]3CC[C@@H](c5ccccc5)N3C4=O)ccc2C1=O` [Example 4.195, (5′S,7a′R)-1-[5-oxo-6-(propan-2-yl)-6,7-dihydro-5H-pyrrolo[3,4-b]pyridin-2-yl]-5′-phenyltetrahydro-3′H-spiro[piperidine-4,2′-pyrrolo[2,1-b] [1,3]oxazol]-3′-one] as the compound, how does the pEC50 read?
The pEC50 was 7.32.

How did the pEC50 turn out when `CC1CC2(CCN1C(=O)c1ccccc1)O[C@@H]1CC[C@@H](c3cc(F)cc(F)c3)N1C2=O` (stereo partly drawn) [Example 6.107, (4R,5′S,7a′R)-1-(benzenecarbonyl)-5′-(3,5-difluorophenyl)-2-methyltetrahydro-3′H-spiro[piperidine-4,2′-pyrrolo[2,1-b] [1,3]oxazol]-3′-one] was run?
Its pEC50 is > 7.60.

`O=C1N2C(=NC13CCN(c1cc(F)ccn1)CC3)CC[C@H]2c1cc(F)cc(F)c1` [Example 11.1] was tested. Which pEC50 did it give?
Its pEC50 is 6.05.

`O=C1N2[C@@H](CC[C@H]2c2ccccc2)OC12CCN(c1ncc(-c3cocn3)cc1F)CC2` [Example 21.6, (5′S,7a′R)-1-[3-fluoro-5-(1,3-oxazol-4-yl)pyridin-2-yl]-5′-phenyltetrahydro-3′H-spiro[piperidine-4,2′-pyrrolo[2,1-b][1,3]oxazol]-3′-one] was tested. Which pEC50 did it give?
Its pEC50 is > 7.60.

With `O=C1N2[C@@H](CC[C@H]2c2cc(F)cc(F)c2)OC12CCN(c1nccn3ccnc13)CC2` [Example 13.15, (5′S,7a′R)-5′-(3,5-difluorophenyl)-1-(imidazo[1,2-a]pyrazin-8-yl)tetrahydro-3′H-spiro[piperidine-4,2′-pyrrolo[2,1-b]oxazol]-3′-one, TFA salt] as the compound, how does the pEC50 read?
Its pEC50 is 6.73.

How did the pEC50 turn out when `O=C(c1ccoc1)N1CCC2(CC1)O[C@@H]1CC[C@@H](c3ccccc3)N1C2=O` [Example 6.145, (5′S,7a′R)-1-(furan-3-carbonyl)-5′-phenyl-tetrahydro-3′H-spiro [piperidine-4,2′-pyrrolo[2,1-b][1,3]oxazol]-3′-one] was run?
Its pEC50 is > 7.60.

With `O=C(c1cc(F)c(F)cc1F)N1CCC2(CC1)O[C@@H]1CC[C@@H](c3cc(F)cc(F)c3)N1C2=O` [Example 5.4, (5′S,7a′R)-5′-(3,5-difluoro-phenyl)-1-(2,4,5-trifluoro-benzene-1-carbonyl)tetra-hydro-3′H-spiro[piperi-dine-4,2′-pyrrolo[2,1-b] [1,3]oxazol]-3′-one] as the compound, how does the pEC50 read?
The pEC50 was > 7.60.

How did the pEC50 turn out when `COc1cc(-n2ccc(N3CCC4(CC3)O[C@@H]3CC[C@@H](c5ccccc5)N3C4=O)n2)ccn1` [Example 11.6, (5′S,7a′R)-1-[1-(2-methoxypyridin-4-yl)-1H-pyrazol-3-yl]-5′-phenyltetrahydro-3′H-spiro[piperidine-4,2′-pyrrolo[2,1-b][1,3]oxazol]-3′-one] was run?
Its pEC50 is 7.50.

`O=C1N2[C@@H](CC[C@H]2c2ccc(F)cc2)OC12CCN(c1ccnc3c(F)cnn13)CC2` [Example 4.124, (5′S,7a′R)-5′-(4-fluorophenyl)-1-(3-fluoropyrazolo[1,5-a]pyrimidin-7-yl)tetrahydro-3′H-spiro[piperidine-4,2′-pyrrolo[2,1-b] [1,3]oxazol]-3′-one] was tested. Which pEC50 did it give?
Its pEC50 is > 7.60.

With `O=C1N2[C@@H](CC[C@H]2c2cc(F)cc(F)c2)OC12CCN(c1nccn3nccc13)CC2` [Example 13.12, (5′S,7a′R)-5′-(3,5-difluorophenyl)-1-(pyrazolo[1,5-a]pyrazin-4-yl)tetrahydro-3′H-spiro[piperidine-4,2′-pyrrolo[2,1-b]oxazol]-3′-one, TFA salt] as the compound, how does the pEC50 read?
Its pEC50 is > 7.60.

With `O=C1N2[C@@H](CC[C@H]2c2ccccc2F)OC12CN(S(=O)(=O)c1ccccc1)C2` [Example 8.5, (5′S,7a′R)-5′-(2-fluorophenyl)-1-(phenylsulfonyl)tetra-hydro-3′H-spiro[azetidine-3,2′-pyrrolo[2,1-b]oxazol]-3′-one] as the compound, how does the pEC50 read?
Its pEC50 is 6.37.

`O=C1N2[C@@H](CC[C@H]2c2cc(F)cc(F)c2)OC12CN(c1cccc3ncnn13)C2` [Example 4.135, (5′S,7a′R)-5′-(3,5-difluorophenyl)-1-([1,2,4]triazolo[1,5-a]pyridin-5-yl)tetrahydro-3′H-spiro[azetidine-3,2′-pyrrolo[2,1-b] [1,3]oxazol]-3′-one] was tested. Which pEC50 did it give?
Its pEC50 is 7.20.

How did the pEC50 turn out when `O=C1N2[C@@H](CC[C@H]2c2ccccc2)OC12CCN(c1nccc(-c3ccccn3)n1)CC2` [Example 11.11, (5′S,7a′R)-5′-phenyl-1-[4-(pyridin-2-yl)pyrimidin-2-yl]tetrahydro-3′H-spiro[piperidine-4,2′-pyrrolo[2,1-b][1,3]oxazol]-3′-one] was run?
The pEC50 was 7.38.

With `CC(C)Oc1cccc(C(=O)N2CCC3(CC2)O[C@@H]2CC[C@@H](c4cc(F)cc(F)c4)N2C3=O)n1` [Example 6.90, (5′S,7a′R)-5′-(3,5-difluorophenyl)-1-{6-[(propan-2-yl)oxy]-pyridine-2-carbonyl} tetrahydro-3′H-spiro [piperidine-4,2′-pyrrolo[2,1-b][1,3]-oxazol]-3′-one] as the compound, how does the pEC50 read?
Its pEC50 is 7.44.

With `C#Cc1ccc(C(=O)N2CCC3(CC2)O[C@@H]2CC[C@@H](c4cc(F)cc(F)c4)N2C3=O)cc1` [Example 5.27, (5′S,7a′R)-5′-(3,5-difluoro-phenyl)-1-(4-ethynyl-benzoyl)tetrahydro-3′H-spiro[piperidine-4,2′-pyrrolo[2,1-b]oxazol]-3′-one] as the compound, how does the pEC50 read?
The pEC50 was 6.77.

`CCOc1cccc(C(=O)N2CCC3(CC2)O[C@@H]2CC[C@@H](c4ccccc4)N2C3=O)c1` [Example 6.139, (5′S,7a′R)-1-(3-ethoxybenzene-1-carbonyl)-5′-phenyl-tetrahydro-3′H-spiro [piperidine-4,2′-pyrrolo[2,1-b][1,3]-oxazol]-3′-one] was tested. Which pEC50 did it give?
Its pEC50 is > 7.60.

`CC1CN(c2cccc3ncnn23)CCC12O[C@@H]1CC[C@@H](c3ccccc3)N1C2=O` (stereo partly drawn) [Example 4.243, (4R,5′S,7a′R)-3-methyl-5′-phenyl-1-([1,2,4]triazolo[1,5-a]pyridin-5-yl)tetrahydro-3′H-spiro[piperidine-4,2′-pyrrolo[2,1-b] [1,3]oxazol]-3′-one] was tested. Which pEC50 did it give?
The pEC50 was 7.58.

With `O=C(c1cccc(N2CCCC2=O)c1)N1CCC2(CC1)O[C@@H]1CC[C@@H](c3cc(F)cc(F)c3)N1C2=O` [Example 6.56, (5′S,7a′R)-5′-(3,5-difluorophenyl)-1-[3-(2-oxopyrrolidin-1-yl)benzene-1-carbon-yl]tetrahydro-3′H-spiro[piperidine-4,2′-pyrrolo[2,1-b][1,3]-oxazol]-3′-one] as the compound, how does the pEC50 read?
The pEC50 was > 7.60.
